pIC50: −log10 of the molar value.

Chain of human TrkA receptor (P04629 33-796): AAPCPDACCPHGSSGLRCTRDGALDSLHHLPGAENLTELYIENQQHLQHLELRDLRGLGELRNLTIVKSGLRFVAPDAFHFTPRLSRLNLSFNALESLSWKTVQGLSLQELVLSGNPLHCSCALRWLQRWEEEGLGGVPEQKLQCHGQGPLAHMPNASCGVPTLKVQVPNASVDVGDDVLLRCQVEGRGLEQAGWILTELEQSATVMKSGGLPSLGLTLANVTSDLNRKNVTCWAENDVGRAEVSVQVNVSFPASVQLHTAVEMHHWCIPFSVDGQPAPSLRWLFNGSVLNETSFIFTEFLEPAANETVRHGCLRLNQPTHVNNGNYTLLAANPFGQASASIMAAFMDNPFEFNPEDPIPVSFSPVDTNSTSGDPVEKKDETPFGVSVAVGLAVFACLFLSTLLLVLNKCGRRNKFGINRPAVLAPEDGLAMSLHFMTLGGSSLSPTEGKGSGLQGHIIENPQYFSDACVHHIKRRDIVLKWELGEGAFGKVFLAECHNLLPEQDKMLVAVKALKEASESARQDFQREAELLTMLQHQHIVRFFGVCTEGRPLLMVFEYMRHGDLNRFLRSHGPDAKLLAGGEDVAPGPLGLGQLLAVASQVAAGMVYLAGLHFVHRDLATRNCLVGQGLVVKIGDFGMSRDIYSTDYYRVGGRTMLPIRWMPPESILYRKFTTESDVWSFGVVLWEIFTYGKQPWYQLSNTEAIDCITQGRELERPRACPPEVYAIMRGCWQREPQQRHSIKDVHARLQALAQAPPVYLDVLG

The test has as its target human TrkA receptor (Homo sapiens (Human), UniProt P04629). Put plainly: TrkA functional activity, DiscoverX PathHunter assay. In kind it is cell-based. The settings on record: U2OS cells expressing human TrkA-PK, Shc1-EA and p75NTR; compound 1 h, then NGF at ~80% of maximal response for 3 h; luminescence.
Description: TrkA functional activity was measured using a DiscoverX PathHunter assay. In this assay, U2OS cells express the human TrkA receptor as a fusion with the weakly complementing fragment of B-galactosidase, which DiscoverX calls “Prolink (PK)”; additionally, Shc1 is fused with a larger fragment, which is called “Enzyme Acceptor (EA)”. Activation of the TrkA receptor, upon NGF addition, results in the kinase domain being phosphorylated, resulting in subsequent recruitment of Shc1-EA protein. That recruitment results in an active B-galactosidase enzyme that is detected by addition of a chemiluminescent substrate. The human p75^NTR protein was also expressed as a co-receptor for NGF.
All reagents were purchased from DiscoverX, except for the receptor agonists (NGF, BDNF, NT3) which were purchased from Peprotech. Cells were expanded and frozen into cryovials, and stored in the vapor phase of liquid nitrogen, and thawed immediately before use. Thawed cells were added to a 384-well plate at 7500 cells/well, and allowed to incubate overnight. Compound at various concentrations was added the following morning and allowed to incubate on cells for 1 h. Then, NGF was added at a concentration sufficient to elicit ˜80% of a maximal response and allowed to incubate for 3 h at ambient temperature. DiscoverX PathHunter detection reagent was then added and the plate was further incubated for 1 h in the dark. The plate was then read via luminescence on the Perkin Elmer Envision.
With `Cn1ccc(-c2cc(C(=O)Nc3c4ncc(C(C)(C)O)cc4nn3-c3ccccc3)ccc2C(F)(F)F)n1` [Compound 48, N-[6-(1-hydroxy-1-methylethyl)-2-phenyl-2H-pyrazolo[4,3-b]pyridin-3-yl]-3-(1-methyl-1H-pyrazol-3-yl)-4-(trifluoromethyl)benzamide], the negative-log IC50 (pIC50) (usually the negative decadic logarithm of the IC50, by convention in mol/L) is 8.28.

In turn, `O=C(Nc1c2cc(C3(O)CC3)ccc2nn1-c1ccccc1)c1cc(-c2ncccn2)c(C(F)(F)F)cc1F` [Compound 50, 2-Fluoro-N-(5-(1-hydroxycyclopropyl)-2-phenyl-2H-indazol-3-yl)-5-(pyrimidin-2-yl)-4-(trifluoromethyl)benzamide] showed a negative logarithm of the IC50 (pIC50) of 8.80.

Compound `Cn1ccc(-c2cc(C(=O)Nc3c4cc(C5(O)CC5)ccc4nn3-c3ccccc3)ccc2C(F)(F)F)n1` [Compound 51, N-[5-(1-hydroxycyclopropyl)-2-phenyl-2H-indazol-3-yl]-3-(1-methyl-1H-pyrazol-3-yl)-4-(trifluoromethyl)benzamide] had a negative logarithm of the IC50 (pIC50) of 8.19.

Compound `O=C(Nc1c2ccc(CCO)cc2nn1-c1ccccc1)c1cc(-c2ncccn2)c(C(F)(F)F)cc1F` [Compound 60, 2-Fluoro-N-(6-(2-hydroxyethyl)-2-phenyl-2H-indazol-3-yl)-5-(pyrimidin-2-yl)-4-(trifluoromethyl)benzamide] had a pIC50 of 8.66.

Consider `O=C(Nc1c2cc(CCO)ccc2nn1-c1ccccc1)c1cc(-c2ncccn2)c(C(F)(F)F)cc1F` [Compound 61, 2-fluoro-N-[5-(2-hydroxyethyl)-2-phenyl-2H-indazol-3-yl]-5-pyrimidin-2-yl-4-(trifluoromethyl)benzamide], for which the negative-log IC50 (pIC50) is 8.51.

Compound `NCc1cnc2c(NC(=O)c3cc(-c4ncccn4)c(C(F)(F)F)cc3F)n(-c3ccccc3)nc2c1` [Compound 66, N-(6-(Aminomethyl)-2-phenyl-2H-pyrazolo[4,3-b]pyridin-3-yl)-2-fluoro-5-(pyrimidin-2-yl)-4-(trifluoromethyl)benzamide] gave a pIC50 of 7.15.

In turn, `CN(C)Cc1ccc2nn(-c3ccccc3)c(NC(=O)c3ccc(C(F)(F)F)c(-c4ccn(C)n4)c3)c2c1` [Compound 68, N-{5-[(dimethylamino)methyl]-2-phenyl-2H-indazol-3-yl}-3-(1-methyl-1H-pyrazol-3-yl)-4-(trifluoromethyl)benzamide] gave a negative logarithm of the IC50 (pIC50) of 7.68.

Regarding `Cn1ccc(-c2cc(C(=O)Nc3c4ccc(CN)cc4nn3-c3ccccc3)c(F)cc2C(F)(F)F)n1` [Compound 71, N-[6-(aminomethyl)-2-phenyl-2H-indazol-3-yl]-2-fluoro-5-(1-methyl-1H-pyrazol-3-yl)-4-(trifluoromethyl)benzamide], the pIC50 was 8.74.

For `Cn1ccc(-c2cc(C(=O)Nc3c4ccc(CNCCO)cc4nn3-c3ccccc3)c(F)cc2C(F)(F)F)n1` [Compound 72, 2-fluoro-N-(6-{[(2-hydroxyethyl)amino]methyl}-2-phenyl-2H-indazol-3-yl)-5-(1-methyl-1H-pyrazol-3-yl)-4-(trifluoromethyl)benzamide], the negative logarithm of the IC50 (pIC50) is 8.19.

As to `NC(=O)c1ccc2c(NC(=O)c3cc(-c4ncccn4)c(C(F)(F)F)cc3F)n(-c3ccccc3)nc2c1` [Compound 73, 3-(2-Fluoro-5-(pyrimidin-2-yl)-4-(trifluoromethyl)benzamido)-2-phenyl-2H-indazole-6-carboxamide], the pIC50 was 8.51.

In the case of `Cn1ccc(-c2cc(C(=O)Nc3c4ccc(C(N)=O)cc4nn3-c3ccccc3)c(F)cc2C(F)(F)F)n1` [Compound 74, 3-(2-Fluoro-5-(1-methyl-1H-pyrazol-3-yl)-4-(trifluoromethyl)benzamido)-2-phenyl-2H-indazole-6-carboxamide], the pIC50 was 9.24.

Compound `NC(=O)c1cnc2c(NC(=O)c3cc(-c4ncccn4)c(C(F)(F)F)cc3F)n(-c3ccccc3)nc2c1` [Compound 75, 3-(2-Fluoro-5-(pyrimidin-2-yl)-4-(trifluoromethyl)benzamido)-2-phenyl-2H-pyrazolo[4,3-b]pyridine-6-carboxamide] showed a negative logarithm of the IC50 (pIC50) of 8.14.

Compound `NC(=O)c1cc2nn(-c3ccccc3)c(NC(=O)c3cc(-c4ncccn4)c(C(F)(F)F)cc3F)c2cn1` [Compound 76, 3-(2-Fluoro-5-(pyrimidin-2-yl)-4-(trifluoromethyl)benzamido)-2-phenyl-2H-pyrazolo[4,3-c]pyridine-6-carboxamide] gave a negative logarithm of the IC50 (pIC50) of 7.44.

`Cc1ccccc1-n1nc2cc(C(N)=O)ccc2c1NC(=O)c1cc(-c2ccn(C)n2)c(C(F)(F)F)cc1F` [Compound 77, 3-(2-Fluoro-5-(1-methyl-1H-pyrazol-3-yl)-4-(trifluoromethyl)benzamido)-2-(o-tolyl)-2H-indazole-6-carboxamide] showed a negative-log IC50 (pIC50) of 8.89.

Compound `NC(=O)c1ccc2c(NC(=O)c3cc(-c4cc[nH]n4)c(C(F)(F)F)cc3F)n(-c3ccccc3)nc2c1` [Compound 78, 3-({[2-fluoro-5-(1H-pyrazol-3-yl)-4-(trifluoromethyl)phenyl]carbonyl}amino)-2-phenyl-2H-indazole-6-carboxamide] gave a pIC50 of 8.44.

The compound `Cn1ccc(-c2cc(C(=O)Nc3c4cc(C(N)=O)ccc4nn3-c3ccccc3)ccc2C(F)(F)F)n1` [Compound 79, 3-({[3-(1-methyl-1H-pyrazol-3-yl)-4-(trifluoromethyl)phenyl]carbonyl}amino)-2-phenyl-2H-indazole-5-carboxamide] gave a negative-log IC50 (pIC50) of 7.96.

`NC(=O)c1ccc2nn(-c3ccccc3)c(NC(=O)c3cc(-c4ncccn4)c(C(F)(F)F)cc3F)c2n1` [Compound 80, 3-({[2-fluoro-5-pyrimidin-2-yl-4-(trifluoromethyl)phenyl]carbonyl}amino)-2-phenyl-2H-pyrazolo[4,3-b]pyridine-5-carboxamide] had a negative-log IC50 (pIC50) of 7.49.

On to `NC(=O)c1ccc2c(NC(=O)c3cc(-c4ccccn4)c(C(F)(F)F)cc3F)n(-c3ccccc3)nc2c1` [Compound 81, 3-({[2-fluoro-5-pyridin-2-yl-4-(trifluoromethyl)phenyl]carbonyl}amino)-2-phenyl-2H-indazole-6-carboxamide], for which the negative-log IC50 (pIC50) was 8.54.

Compound `Cn1ccc(-c2cc(C(=O)Nc3c4ccc(C(N)=O)cc4nn3-c3ccccc3)ccc2C(F)(F)F)n1` [Compound 82, 3-({[3-(1-methyl-1H-pyrazol-3-yl)-4-(trifluoromethyl)phenyl]carbonyl}amino)-2-phenyl-2H-indazole-6-carboxamide] showed a pIC50 of 8.57.

`NC(=O)c1ccc2c(NC(=O)c3cc(-c4ccccn4)c(C(F)(F)F)cc3Cl)n(-c3ccccc3)nc2c1` [Compound 83, 3-({[2-chloro-5-pyridin-2-yl-4-(trifluoromethyl)phenyl]carbonyl}amino)-2-phenyl-2H-indazole-6-carboxamide]: the pIC50 was 8.21.

The compound `NC(=O)c1cnc2c(NC(=O)c3cc(-c4ccccn4)c(C(F)(F)F)cc3F)n(-c3ccccc3)nc2c1` [Compound 84, 3-({[2-fluoro-5-pyridin-2-yl-4-(trifluoromethyl)phenyl]carbonyl}amino)-2-phenyl-2H-pyrazolo[4,3-b]pyridine-6-carboxamide] gave a negative logarithm of the IC50 (pIC50) of 8.59.

As to `NC(=O)c1cnc2c(NC(=O)c3cc(-c4ccccn4)c(C(F)(F)F)cc3Cl)n(-c3ccccc3)nc2c1` [Compound 85, 3-({[2-chloro-5-pyridin-2-yl-4-(trifluoromethyl)phenyl]carbonyl}amino)-2-phenyl-2H-pyrazolo[4,3-b]pyridine-6-carboxamide], the pIC50 was 8.48.

Compound `Cn1ccc(-c2cc(C(=O)Nc3c4ncc(C(N)=O)cc4nn3-c3ccccc3)ccc2C(F)(F)F)n1` [Compound 86, 3-({[3-(1-methyl-1H-pyrazol-3-yl)-4-(trifluoromethyl)phenyl]carbonyl}amino)-2-phenyl-2H-pyrazolo[4,3-b]pyridine-6-carboxamide] showed a negative logarithm of the IC50 (pIC50) of 8.55.

In turn, `Cn1ccc(-c2cc(C(=O)Nc3c4ncc(C(N)=O)cc4nn3-c3ccccc3)c(F)cc2C(F)(F)F)n1` [Compound 87, 3-({[2-fluoro-5-(1-methyl-1H-pyrazol-3-yl)-4-(trifluoromethyl)phenyl]carbonyl}amino)-2-phenyl-2H-pyrazolo[4,3-b]pyridine-6-carboxamide] gave a negative logarithm of the IC50 (pIC50) of 9.20.

`NC(=O)c1cnc2c(NC(=O)c3ccc(C(F)(F)F)c(-c4ncccn4)c3)n(-c3ccccc3)nc2c1` [Compound 88, 2-phenyl-3-({[3-pyrimidin-2-yl-4-(trifluoromethyl)phenyl]carbonyl}amino)-2H-pyrazolo[4,3-b]pyridine-6-carboxamide] gave a pIC50 of 7.89.

In turn, `NC(=O)c1cccc2c(NC(=O)c3cc(-c4ncccn4)c(C(F)(F)F)cc3F)n(-c3ccccc3)nc12` [Compound 89, 3-({[2-fluoro-5-pyrimidin-2-yl-4-(trifluoromethyl)phenyl]carbonyl}amino)-2-phenyl-2H-indazole-7-carboxamide] had a pIC50 of 7.96.

In the case of `O=C(NCCO)c1ccc2c(NC(=O)c3cc(-c4ncccn4)c(C(F)(F)F)cc3Cl)n(-c3ccccc3)nc2c1` [Compound 90, 3-({[2-chloro-5-pyrimidin-2-yl-4-(trifluoromethyl)phenyl]carbonyl}amino)-N-(2-hydroxyethyl)-2-phenyl-2H-indazole-6-carboxamide], the negative-log IC50 (pIC50) was 7.85.

Regarding `Cc1ccccc1-n1nc2cc(C(N)=O)cnc2c1NC(=O)c1cc(-c2ncccn2)c(C(F)(F)F)cc1F` [Compound 91, 3-({[2-fluoro-5-pyrimidin-2-yl-4-(trifluoromethyl)phenyl]carbonyl}amino)-2-(2-methylphenyl)-2H-pyrazolo[4,3-b]pyridine-6-carboxamide], the pIC50 was 7.28.

In turn, `O=C(NCCO)c1ccc2c(NC(=O)c3cc(-c4ncccn4)c(C(F)(F)F)cc3F)n(-c3ccccc3)nc2c1` [Compound 92, 3-({[2-fluoro-5-pyrimidin-2-yl-4-(trifluoromethyl)phenyl]carbonyl}amino)-N-(2-hydroxyethyl)-2-phenyl-2H-indazole-6-carboxamide] gave a negative logarithm of the IC50 (pIC50) of 7.96.

`Cc1ccccc1-n1nc2cc(C(N)=O)ccc2c1NC(=O)c1cc(-c2ncccn2)c(C(F)(F)F)cc1F` [Compound 93, 3-({[2-fluoro-5-pyrimidin-2-yl-4-(trifluoromethyl)phenyl]carbonyl}amino)-2-(2-methylphenyl)-2H-indazole-6-carboxamide]: the negative-log IC50 (pIC50) was 7.49.

These data come from patent US9862707B2, “TrkA kinase inhibitors, compositions and methods thereof” (Merck Sharp & Dohme Corp., priority 2014, dated 2018).
